From patent US5496533A, “Rhenium complexes” (Australian Nuclear Science & Technology Organisation, priority 1992, dated 1996) come the findings set out here.

Where two headings read alike, the source gives them in different places.

The data set in a line: Hygroscopic nature of the HCl salts. It is filed as physicochemical. How it is done: To a solution of N-methyl-bicyclic compound (2) (10 mmole) in dry THF (100-150ml) was added a large excess of LiAlH4 (30 mmole), and the mixture was refluxed for about 24 hr. The reaction mixture was quenched with […]. NH4 Cl, and filtered. The contents of the funnel were washed with 100ml of CHCl3 twice and the combined filtrate of THF and CHCl3 was evaporated to dryness under reduced pressure. The residue was dissolved in ether (100 ml), and the hydrochloride salt was made by addition of ethanol--HCl and removal of organic solvent under reduced pressure.
To a solution of N-acyl-bicyclic compound (3) (10 mmole) in dry tetrahydrofuran (THF) (100-150ml) was added a large excess of LiAlH4 (50 mmole), and the mixture was refluxed for about 24 hr. The reaction mixture was quenched with satd. NH4 Cl, and filtered. The contents of the funnel were washed with 100 ml of CHCl3 twice and the combined filtrate of THF and CHCl3 was evaporated to dryness under reduced pressure. Water was added (100 ml), and the pH was adjusted to 3.0 with concentrated HCl. The mixture was extracted with diethyl ether (80 ml/extraction) to remove ether soluble impurities. These ether solutions were discarded. The pH was then adjusted to 8.0 and extracted with fresh ether. These ether solutions were dried (Na2 SO4), filtered and evaporated under reduced pressure. […]

In the case of `CN(CCNCC(C)(C)S)CC(C)(C)S` [N-methyl compound (4), 2,2,9,9-pentamethyl-4-N-methyl-4,7-diaza-1,10-decanedithiol], the “hygroscopic nature of HCl salts” value is on record as “very hygroscopic”. For the setting “listed as 4(N--Me)”, the “hygroscopic nature of HCl salts” value is reported as “strong hygroscopic nature”.
